Entries after “also recorded” stand apart in the source; their conditions may differ. Read-outs that look alike come from different tables or passages of the source.
How the values were obtained:
CYP3A = CYP3A (Homo sapiens, UniProt P08684); test: Time-dependent inhibition of CYP3A in HLM (IC50 shift and enzyme inactivation kinetics); type: in vitro ADME; design: from tissue; host or cells: human liver microsomes; details: human liver microsomes; for kinact: read-out: kinact (maximum enzyme inactivation rate constant), TDI of CYP3A (converted)
Procedure: Time-dependent inhibition (TDI) potentials for various CYP enzymes were evaluated by a 30 minute pre-incubation of maribavir with HLM in the presence and absence of nicotinamide-adenine dinucleotide […] (NADPH) followed by a CYP enzyme activity assay.
Enzyme inactivation kinetics of maribavir for the TDI of CYP3A, with midazolam and testosterone as probe substrates, was evaluated by pre-incubation of HLM with maribavir at various concentrations with NADPH for six different pre-incubation time frames. CYP3A activity was measured by determining the formation of CYP3A probe metabolite. Inhibitor concentration at half maximal enzyme inactivation (KI), and maximum enzyme inactivation rate constant (kinact), were estimated using non-linear least-square regression.

CYP2C19 = CYP2C19 (Homo sapiens, UniProt P33261); test: Reversible CYP inhibition in human liver microsomes (HLM); type: in vitro ADME; design: from tissue; host or cells: human liver microsomes
Procedure: (§1) HLM were used to evaluate maribavir's half maximal inhibitory concentration (IC50) on inhibition of activities of nine CYP isoforms. Probe substrates were phenacetin (CYP1A2), coumarin (CYP2A6), bupropion (CYP2B6), paclitaxel (CYP2C8), tolbutamide (CYP2C9), (S)-mephenytoin (CYP2C19), dextromethorphan (CYP2D6), clorzoxazone (CYP2E1), and midazolam and testosterone (CYP3A4).
(§2) CYP activities with 0, 0.1, 0.3, 1, 3, 10, 30, and 100 μM of maribavir were evaluated.

CYP2C9 = CYP2C9 (Homo sapiens, UniProt P11712); test: as above; type: in vitro ADME; design: from tissue; host or cells: human liver microsomes
Procedure: as §1, §2

CYP1A2 = biological target: T1, CYP1A2 (Homo sapiens, UniProt P05177); test: as above; type: in vitro ADME; design: from tissue; host or cells: human liver microsomes
T1 sequence (P05177 1-516): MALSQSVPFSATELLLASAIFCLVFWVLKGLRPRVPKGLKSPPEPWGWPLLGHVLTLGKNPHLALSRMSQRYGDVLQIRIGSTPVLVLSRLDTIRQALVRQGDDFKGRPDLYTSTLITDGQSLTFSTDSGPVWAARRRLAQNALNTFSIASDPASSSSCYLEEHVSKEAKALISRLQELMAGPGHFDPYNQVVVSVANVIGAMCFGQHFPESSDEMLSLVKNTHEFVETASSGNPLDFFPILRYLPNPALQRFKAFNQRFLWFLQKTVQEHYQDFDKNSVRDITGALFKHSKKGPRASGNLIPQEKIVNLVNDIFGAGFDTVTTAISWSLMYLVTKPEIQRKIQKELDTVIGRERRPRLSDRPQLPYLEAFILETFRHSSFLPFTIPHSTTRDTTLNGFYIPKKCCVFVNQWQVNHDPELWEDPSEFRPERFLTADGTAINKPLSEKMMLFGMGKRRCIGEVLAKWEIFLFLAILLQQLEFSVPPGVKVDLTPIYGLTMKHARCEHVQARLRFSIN
Procedure: as §1, §2

CYP2C8 = biological target: T2, CYP2C8 (Homo sapiens, UniProt P10632); test: as above; type: in vitro ADME; design: from tissue; host or cells: human liver microsomes; details: up to 100 μM
T2 sequence (P10632 1-490): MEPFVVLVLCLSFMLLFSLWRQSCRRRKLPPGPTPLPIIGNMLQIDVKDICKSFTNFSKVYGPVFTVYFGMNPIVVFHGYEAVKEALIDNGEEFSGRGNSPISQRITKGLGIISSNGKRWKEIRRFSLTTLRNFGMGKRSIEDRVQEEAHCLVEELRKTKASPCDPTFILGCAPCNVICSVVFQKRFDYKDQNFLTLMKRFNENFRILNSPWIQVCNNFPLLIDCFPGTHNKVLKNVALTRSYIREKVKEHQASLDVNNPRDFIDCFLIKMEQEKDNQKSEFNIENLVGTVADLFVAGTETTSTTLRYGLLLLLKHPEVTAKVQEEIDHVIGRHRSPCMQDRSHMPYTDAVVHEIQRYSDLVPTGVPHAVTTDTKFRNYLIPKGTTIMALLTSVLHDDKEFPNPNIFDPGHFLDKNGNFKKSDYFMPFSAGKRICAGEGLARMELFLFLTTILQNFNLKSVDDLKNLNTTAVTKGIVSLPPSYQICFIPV
Procedure: as §1, §2

CYP2D6 = CYP2D6 (Homo sapiens, UniProt P10635); test: as above; type: in vitro ADME; design: from tissue; host or cells: human liver microsomes; details: up to 100 μM
Procedure: as §1, §2

[1] = PBPK model simulation of maribavir alone; design: species or system human
Procedure: A Physiologically-based Pharmacokinetic (“PBPK”) model based on prior in vitro and in vivo information on the metabolism and kinetics of maribavir was constructed with the aim of predicting plasma concentration-time profiles of maribavir and to evaluate the likely impact of coadministration of CYP3A4 inhibitors and inducers on the kinetics of maribavir in healthy subjects.
A combination of in vitro data and clinical pharmacokinetic data obtained following a single dose of 400 mg maribavir were used to develop the PBPK model. […] The Cmax was marginally under predicted, which could be expected because the PBPK model was optimized for better prediction of C12h.
Distribution models evaluated included a full PBPK model and a minimal PBPK model, both of which consider liver and intestinal metabolism. Mass balance data from the [^14C] ADME study indicated a fraction absorbed of 0.83 or greater following oral administration of 400 mg dose of maribavir. Absorption models evaluated included a simple first-order absorption model and a more mechanistic “Advanced Dissolution Absorption and Metabolism” (ADAM) model.
A comparison of observed and predicted plasma concentrations of maribavir following single oral doses of 800 mg and 1600 mg to healthy patients […]. […] The simulated and observed maribavir concentrations were in reasonable agreement.
A comparison of observed and predicted plasma concentrations of maribavir following multiple oral 400 mg BID doses of maribavir was performed. […] The simulated and observed maribavir concentrations were in reasonable agreement.

[2] = maribavir 400 mg BID alone (Table 7A)
[3] = maribavir 400 mg BID, 5 doses (Table 5A)
[4] = maribavir 400 mg single dose alone (Table 6A)
[5] = maribavir 400 mg single oral dose
[6] = maribavir 800 mg single oral dose
[7] = maribavir 1600 mg single oral dose

Sequence of CYP3A (P08684 2-503): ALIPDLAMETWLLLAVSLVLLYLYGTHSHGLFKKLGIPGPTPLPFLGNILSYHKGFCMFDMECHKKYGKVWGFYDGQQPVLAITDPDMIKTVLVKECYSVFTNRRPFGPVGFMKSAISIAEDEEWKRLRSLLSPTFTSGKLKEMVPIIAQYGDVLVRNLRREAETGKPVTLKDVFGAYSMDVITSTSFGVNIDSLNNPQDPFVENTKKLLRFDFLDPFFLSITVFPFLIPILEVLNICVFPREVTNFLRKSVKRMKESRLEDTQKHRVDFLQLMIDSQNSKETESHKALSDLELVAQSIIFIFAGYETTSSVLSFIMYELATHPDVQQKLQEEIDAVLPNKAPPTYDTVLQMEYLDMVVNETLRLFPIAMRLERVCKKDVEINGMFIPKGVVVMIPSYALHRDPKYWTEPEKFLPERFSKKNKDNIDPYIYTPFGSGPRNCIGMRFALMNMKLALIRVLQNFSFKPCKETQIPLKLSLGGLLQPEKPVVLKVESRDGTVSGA
Sequence of CYP2D6 (P10635 whole entry): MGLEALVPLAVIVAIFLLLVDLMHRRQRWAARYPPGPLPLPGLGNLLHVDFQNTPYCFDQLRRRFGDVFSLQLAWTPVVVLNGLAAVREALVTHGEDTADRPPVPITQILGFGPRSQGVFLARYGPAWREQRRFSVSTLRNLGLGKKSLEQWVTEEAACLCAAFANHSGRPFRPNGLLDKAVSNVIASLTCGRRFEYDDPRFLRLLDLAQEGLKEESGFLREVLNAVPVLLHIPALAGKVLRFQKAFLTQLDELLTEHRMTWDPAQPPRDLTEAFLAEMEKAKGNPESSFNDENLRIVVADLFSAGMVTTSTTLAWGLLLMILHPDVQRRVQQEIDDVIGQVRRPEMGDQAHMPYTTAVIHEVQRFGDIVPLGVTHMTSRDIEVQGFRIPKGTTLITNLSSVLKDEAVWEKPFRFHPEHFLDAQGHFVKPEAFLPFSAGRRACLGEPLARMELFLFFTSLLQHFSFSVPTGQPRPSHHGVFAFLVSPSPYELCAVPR
Sequence of CYP2C19 (P33261 whole entry, canonical isoform): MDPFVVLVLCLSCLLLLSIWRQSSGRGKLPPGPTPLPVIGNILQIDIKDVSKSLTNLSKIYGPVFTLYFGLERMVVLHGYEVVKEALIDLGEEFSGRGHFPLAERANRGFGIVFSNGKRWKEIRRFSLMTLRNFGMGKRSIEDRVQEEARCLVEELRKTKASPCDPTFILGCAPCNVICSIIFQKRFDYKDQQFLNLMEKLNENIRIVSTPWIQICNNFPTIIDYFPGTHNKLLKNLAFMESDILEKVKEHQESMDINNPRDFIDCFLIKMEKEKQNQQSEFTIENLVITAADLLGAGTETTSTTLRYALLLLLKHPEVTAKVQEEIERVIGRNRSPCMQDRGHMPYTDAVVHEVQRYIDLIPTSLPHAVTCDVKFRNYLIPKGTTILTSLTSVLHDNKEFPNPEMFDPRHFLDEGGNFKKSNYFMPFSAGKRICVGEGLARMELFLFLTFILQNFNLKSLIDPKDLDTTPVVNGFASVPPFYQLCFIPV
Sequence of CYP2C9 (P11712 whole entry): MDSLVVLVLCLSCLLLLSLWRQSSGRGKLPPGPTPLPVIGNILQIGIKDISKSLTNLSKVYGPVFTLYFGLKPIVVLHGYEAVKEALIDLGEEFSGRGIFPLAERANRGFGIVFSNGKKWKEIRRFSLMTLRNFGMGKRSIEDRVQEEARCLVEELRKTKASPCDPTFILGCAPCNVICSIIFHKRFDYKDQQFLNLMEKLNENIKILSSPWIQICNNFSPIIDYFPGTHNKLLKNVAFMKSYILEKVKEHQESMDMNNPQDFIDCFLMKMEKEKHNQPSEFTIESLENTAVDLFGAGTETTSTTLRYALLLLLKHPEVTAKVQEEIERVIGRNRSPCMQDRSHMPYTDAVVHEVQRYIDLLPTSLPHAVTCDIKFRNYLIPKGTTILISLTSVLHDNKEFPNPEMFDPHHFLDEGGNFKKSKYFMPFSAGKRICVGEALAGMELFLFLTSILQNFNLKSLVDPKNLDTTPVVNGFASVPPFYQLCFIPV

Structure (SMILES): CC(C)Nc1nc2cc(Cl)c(Cl)cc2n1[C@H]1O[C@@H](CO)[C@H](O)[C@@H]1O [maribavir, (2S,3S,4R,5S)-2-(5,6-dichloro-2-(isopropylamino)-1H-benzo[d]imidazol-1-yl)-5-(hydroxymethyl)tetrahydrofuran-3,4-diol]
- KI (inactivation) (CYP3A; probe midazolam): 41.2 µM
- kinact (CYP3A; probe midazolam, midazolam as substrate): 0.000195 s⁻¹
- KI (inactivation) (CYP3A; probe testosterone): 167 µM
- kinact (CYP3A; probe testosterone, testosterone as substrate): 0.000595 s⁻¹
- IC50 (CYP2C19): 35 µM
- IC50 (CYP2C9): 18 µM
- IC50 (CYP1A2): 40 µM
- reversible inhibition of CYP2C8 (CYP2C8): not a reversible inhibitor; also recorded: no significant inhibition
- reversible inhibition of CYP2D6 (CYP2D6): not a reversible inhibitor; also recorded: no significant inhibition
- AUC(0-12 h), RATIO GEOMETRIC MEAN PREDICTED/OBSERVED [1, 2]: 1.03
- AUC(0-12 h), RATIO MEAN PREDICTED/OBSERVED [1, 2]: 1.06
- C12 h, RATIO GEOMETRIC MEAN PREDICTED/OBSERVED [1, 2]: 0.92
- C12 h, RATIO MEAN PREDICTED/OBSERVED [1, 2]: 1.14
- Cmax, RATIO GEOMETRIC MEAN PREDICTED/OBSERVED [1, 2]: 0.85
- Cmax, RATIO MEAN PREDICTED/OBSERVED [1, 2]: 0.84
- AUC(0-∞), RATIO MEAN PREDICTED/OBSERVED [1, 3]: 1.07
- C12 h, RATIO MEAN PREDICTED/OBSERVED [1, 3]: 1.18
- Cmax, RATIO MEAN PREDICTED/OBSERVED [1, 3]: 0.85
- AUC(0-∞), GEOMEAN RATIO PREDICTED/OBSERVED [1, 4]: 0.78
- AUC(0-∞), MEAN RATIO PREDICTED/OBSERVED [1, 4]: 0.79
- Cmax, GEOMEAN RATIO PREDICTED/OBSERVED [1, 4]: 0.61
- Cmax, MEAN RATIO PREDICTED/OBSERVED [1, 4]: 0.62
- AUC(0-∞), RATIO MEAN PREDICTED/OBSERVED [1, 5]: 1.00
- Cmax, RATIO MEAN PREDICTED/OBSERVED [1, 5]: 0.72
- AUC(0-∞), RATIO MEAN PREDICTED/OBSERVED [1, 6]: 1.07
- Cmax, RATIO MEAN PREDICTED/OBSERVED [1, 6]: 0.91
- AUC(0-∞), RATIO MEAN PREDICTED/OBSERVED [1, 7]: 0.90
- Cmax, RATIO MEAN PREDICTED/OBSERVED [1, 7]: 0.99
